In article PMC7026418, “The kinase polypharmacology landscape of clinical PARP inhibitors” (Scientific Reports, 2020):
Like-named read-outs stand apart in the source and are kept apart here. One block for each molecule: values may come before it.

Tests used:
Assay in all cases: biochemical
Design in all cases: DiscoveRx KINOMEscan active site-directed competition binding; percent of control kinase bound to immobilised ligand
MTOR = MTOR (Homo sapiens, UniProt P42345)
EPHB6 = target: T1, EPHB6 (Homo sapiens, UniProt O15197)
T1 sequence (O15197 1-1021): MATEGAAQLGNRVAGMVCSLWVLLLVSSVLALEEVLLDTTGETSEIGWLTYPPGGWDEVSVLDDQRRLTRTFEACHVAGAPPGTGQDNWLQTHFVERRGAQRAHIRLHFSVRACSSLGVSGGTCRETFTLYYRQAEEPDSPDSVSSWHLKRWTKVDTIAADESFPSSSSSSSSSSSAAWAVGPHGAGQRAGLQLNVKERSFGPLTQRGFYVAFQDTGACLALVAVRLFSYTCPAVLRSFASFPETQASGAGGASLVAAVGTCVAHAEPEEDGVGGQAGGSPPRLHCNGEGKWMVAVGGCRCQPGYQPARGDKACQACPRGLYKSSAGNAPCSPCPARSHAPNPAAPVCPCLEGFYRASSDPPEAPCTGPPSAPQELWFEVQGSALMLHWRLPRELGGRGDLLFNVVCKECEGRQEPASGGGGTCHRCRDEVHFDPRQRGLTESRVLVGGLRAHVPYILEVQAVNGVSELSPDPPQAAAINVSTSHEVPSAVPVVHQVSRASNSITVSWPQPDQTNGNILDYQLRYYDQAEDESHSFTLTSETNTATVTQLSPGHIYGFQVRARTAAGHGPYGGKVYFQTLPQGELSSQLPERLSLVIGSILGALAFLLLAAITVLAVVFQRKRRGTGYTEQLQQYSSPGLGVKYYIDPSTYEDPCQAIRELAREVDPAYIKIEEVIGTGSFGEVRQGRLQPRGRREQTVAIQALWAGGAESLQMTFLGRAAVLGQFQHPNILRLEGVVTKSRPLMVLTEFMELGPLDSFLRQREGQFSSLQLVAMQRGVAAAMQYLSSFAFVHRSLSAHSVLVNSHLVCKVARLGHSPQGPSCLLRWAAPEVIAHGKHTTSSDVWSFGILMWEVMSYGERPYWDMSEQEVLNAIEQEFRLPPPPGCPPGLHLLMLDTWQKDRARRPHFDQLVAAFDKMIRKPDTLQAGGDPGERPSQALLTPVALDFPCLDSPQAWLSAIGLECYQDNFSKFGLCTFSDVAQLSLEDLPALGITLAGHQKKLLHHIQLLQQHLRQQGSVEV

YANK2 = target: T2, YANK2 (Homo sapiens, UniProt Q9NY57)
T2 construct: gene STK32B
T2 sequence (Q9NY57 whole entry): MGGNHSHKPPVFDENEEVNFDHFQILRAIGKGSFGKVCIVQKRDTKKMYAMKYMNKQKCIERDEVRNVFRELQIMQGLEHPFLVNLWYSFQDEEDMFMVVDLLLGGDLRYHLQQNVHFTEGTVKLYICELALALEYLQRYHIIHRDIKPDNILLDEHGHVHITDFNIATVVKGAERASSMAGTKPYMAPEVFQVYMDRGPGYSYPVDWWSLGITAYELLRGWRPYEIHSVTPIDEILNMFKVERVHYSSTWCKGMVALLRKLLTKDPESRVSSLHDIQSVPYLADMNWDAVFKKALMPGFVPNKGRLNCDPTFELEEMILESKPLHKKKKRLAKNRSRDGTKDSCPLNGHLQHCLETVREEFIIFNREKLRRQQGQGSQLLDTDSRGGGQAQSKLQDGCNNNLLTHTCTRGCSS

ERK3 = target: T3, ERK3 (Homo sapiens, UniProt Q16659)
T3 construct: gene MAPK6
T3 sequence (Q16659 whole entry): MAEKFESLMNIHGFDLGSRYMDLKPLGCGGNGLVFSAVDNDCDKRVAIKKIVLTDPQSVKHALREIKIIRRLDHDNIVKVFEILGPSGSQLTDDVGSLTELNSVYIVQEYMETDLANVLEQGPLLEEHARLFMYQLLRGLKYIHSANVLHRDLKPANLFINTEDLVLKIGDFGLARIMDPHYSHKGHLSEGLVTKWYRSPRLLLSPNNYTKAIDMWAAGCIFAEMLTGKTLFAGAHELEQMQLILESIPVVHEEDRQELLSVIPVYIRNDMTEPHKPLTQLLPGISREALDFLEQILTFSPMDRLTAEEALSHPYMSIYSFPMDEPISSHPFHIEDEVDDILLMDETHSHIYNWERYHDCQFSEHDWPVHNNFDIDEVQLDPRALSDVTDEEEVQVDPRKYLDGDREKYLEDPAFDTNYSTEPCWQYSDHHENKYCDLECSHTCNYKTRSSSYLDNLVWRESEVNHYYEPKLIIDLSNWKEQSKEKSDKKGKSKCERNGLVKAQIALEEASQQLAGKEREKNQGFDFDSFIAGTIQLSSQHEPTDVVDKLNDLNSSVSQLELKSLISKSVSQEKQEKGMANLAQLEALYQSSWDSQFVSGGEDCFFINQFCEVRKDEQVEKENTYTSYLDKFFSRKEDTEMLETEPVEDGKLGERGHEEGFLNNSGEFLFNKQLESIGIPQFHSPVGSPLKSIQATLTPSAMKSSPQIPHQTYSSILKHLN

PKMYT1 = target: T4, PKMYT1 (Homo sapiens, UniProt Q99640)
T4 sequence (Q99640 1-499): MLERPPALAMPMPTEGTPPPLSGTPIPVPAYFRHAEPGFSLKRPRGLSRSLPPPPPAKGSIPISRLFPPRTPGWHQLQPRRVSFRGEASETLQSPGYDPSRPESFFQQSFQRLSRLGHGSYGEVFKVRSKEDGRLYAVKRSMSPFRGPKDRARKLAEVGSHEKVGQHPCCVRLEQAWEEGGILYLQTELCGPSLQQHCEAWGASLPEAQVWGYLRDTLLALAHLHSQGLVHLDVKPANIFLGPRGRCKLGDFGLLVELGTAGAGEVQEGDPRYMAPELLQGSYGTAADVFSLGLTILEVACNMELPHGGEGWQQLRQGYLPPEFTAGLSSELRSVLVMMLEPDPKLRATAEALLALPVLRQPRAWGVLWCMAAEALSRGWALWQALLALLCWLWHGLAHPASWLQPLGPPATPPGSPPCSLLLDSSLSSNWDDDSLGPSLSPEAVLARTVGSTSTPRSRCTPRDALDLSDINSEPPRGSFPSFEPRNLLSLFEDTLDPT

[1] = read-out: Niraparib (MK-4827) / %Ctrl @ 10000nM
[2] = read-out: Rucaparib / %Ctrl @ 10000nM, binding competition, % of control
[3] = read-out: Olaparib / %Ctrl @ 10000nM
[4] = read-out: Talazoparib (BMN 673) / %Ctrl @ 10000nM

Structure (SMILES): NC(=O)c1cccc2cn(-c3ccc([C@@H]4CCCNC4)cc3)nc12 [Niraparib]
percent of control binding at 10 µM (MTOR; [1]): 85% | percent of control binding at 10 µM (EPHB6; [1]): 34% | percent of control binding at 10 µM (YANK2; [1]): 100% | percent of control binding at 10 µM (ERK3; [1]): 81% | percent of control binding at 10 µM (PKMYT1; [1]): 93%

percent of control binding at 10 µM (MTOR; [2]): 96% | percent of control binding at 10 µM (EPHB6; [2]): 50% | percent of control binding at 10 µM (YANK2; [2]): 100% | percent of control binding at 10 µM (ERK3; [2]): 90% | percent of control binding at 10 µM (PKMYT1; [2]): 100%
Structure (SMILES): CNCc1ccc(-c2[nH]c3cc(F)cc4c3c2CCNC4=O)cc1 [Rucaparib]

percent of control binding at 10 µM (MTOR; [3]): 94% | percent of control binding at 10 µM (EPHB6; [3]): 81% | percent of control binding at 10 µM (YANK2; [3]): 94% | percent of control binding at 10 µM (ERK3; [3]): 95% | percent of control binding at 10 µM (PKMYT1; [3]): 100%
Structure (SMILES): O=C(c1cc(Cc2n[nH]c(=O)c3ccccc23)ccc1F)N1CCN(C(=O)C2CC2)CC1 [Olaparib]

percent of control binding at 10 µM (MTOR; [4]): 35% | percent of control binding at 10 µM (EPHB6; [4]): 84% | percent of control binding at 10 µM (YANK2; [4]): 91% | percent of control binding at 10 µM (ERK3; [4]): 100% | percent of control binding at 10 µM (PKMYT1; [4]): 100%
Structure (SMILES): Cn1ncnc1[C@H]1c2n[nH]c(=O)c3cc(F)cc(c23)N[C@@H]1c1ccc(F)cc1 [Talazoparib]
